What was measured:
[1] = test system: human bladder cancer cell line UM-UC-3; test: In vitro imaging effect test with addition of BSP, UM-UC-3; type: cell-based; details: 250 μM BSP, compound 1-20 μM with surfactin 1:5, 30 minutes
Experimental: UM-UC-3 (1.5×10^4/well) were cultured in EMEM medium (containing 10% fetal bovine serum (FBS) and 1% antibiotics (100 U/mL penicillin and 100 U/mL streptomycin)) and seeded in a 96-well plate in advance. The plate was cultured in a 5% CO2 cell culture incubator at 37° C. overnight. The following day, the culture medium was sucked away, and 250 μM of BSP was added to the test wells and preconditioned for 10 minutes, followed by addition of the culture medium containing an appropriate concentration (1-20 μM) of the compound and surfactin (the molar ratio of the test compound to the surfactin being 1:5) with or without 250 μM of BSP, and then incubated for 30 minutes. The cells were rinsed three times with PBS solution, and the near-infrared fluorescence intensity in the bladder cancer cells was observed using an integrated fluorescence microscopic imaging system from Keyence. The conditions for near-infrared photography were Ex=775/50 nm and Em=845/55 nm.

[2] = UV-VIS absorption spectra (optical property test); type: physicochemical; details: 10 μM, DMSO solution; for Absorbance × 10^4: at maximum absorption peak
Experimental: The UV-VIS absorption spectra of the compounds (10 μM, DMSO solution) were detected using Shimadzu UV2600 spectrophotometer, and the maximum absorption peak and absorbance of each compound were obtained.

Row | Absorption peak [2] [nm] | Absorbance × 10^4 [2] | Structure (SMILES) | Uptake by UM-UC-3 with or without BSP [1]
1 | 833.5 | 2.09 | CC[N+]1=C(/C=C/C2=C(Cl)C(=C/C=C3/N(CCCCCC(=O)Oc4ccccc4)c4ccc5ccccc5c4C3(C)C)/CCC2)C(C)(C)c2c1ccc1ccccc21 [Example 2] | may be weakened or enhanced by BSP
2 |  |  | CC[N+]1=C(/C=C/C2=C(Cl)C(=C/C=C3/N(CCCCCC(=O)Oc4ccccc4)c4ccccc4C3(C)C)/CCC2)C(C)(C)c2ccccc21 [Example 12a, 2-((E)-2-((E)-2-chloro-3-(2-((E)-3,3-dimethyl-1-(6-oxo-6-phenoxyhexyl)indolin-2-ylidene)ethenyl)cyclohex-1-en-1-yl)ethenyl)-1-ethyl-3,3-dimethyl-3H-indol-1-ium chloride, reference compound] | may be weakened or enhanced by BSP
3 | 793.5 | 3.686 | CC[N+]1=C(/C=C/C2=C(Cl)C(=C/C=C3/N(CCCCC(=O)NCCCNC(=O)CCCCN4/C(=C/C=C5\CCCC(/C=C/C6=[N+](CC)c7ccccc7C6(C)C)=C5Cl)C(C)(C)c5ccccc54)c4ccccc4C3(C)C)/CCC2)C(C)(C)c2ccccc21.[Cl-].[Cl-] [Example 82] | 
4 |  | 2.41 | CC1(C)C(/C=C/C2=C(Cl)C(=C/C=C3/N(CCCCCC(=O)O)c4ccccc4C3(C)C)/CC2)=[N+](CCCCCC(=O)O)c2ccccc21 [Example 84, 1-(5-carboxypentyl)-2-((E)-2-((E)-3-(2-((E)-1-(5-carboxypentyl)-3,3-dimethylindolin-2-ylidene)ethenyl)-2-chlorocyclopent-1-en-1-yl)ethenyl)-3,3-dimethyl-3H-indol-1-ium Chloride] | 
5 | 796.5 | 2.239 | CC1(C)C(/C=C/C2=C(Cl)C(=C/C=C3/N(CCCCCC(=O)O)c4ccccc4C3(C)C)/CCC2)=[N+](CCCCCC(=O)Oc2ccccc2)c2ccccc21 [Example 85A] | 
6 |  | 1.75 | Cc1cccc(C)c1OC(=O)CCCCC[N+]1=C(/C=C/C2=C(Cl)C(=C/C=C3/N(CCCCCC(=O)O)c4ccccc4C3(C)C)/CC2)C(C)(C)c2ccccc21 [Example 88, 2-((E)-2-((E)-3-(2-((E)-1-(5-carboxypentyl)-3,3-dimethylindolin-2-ylidene)ethenyl)-2-chlorocyclopent-1-en-1-yl)ethenyl)-1-(6-(2,6-dimethylphenoxy)-6-oxohexyl)-3,3-dimethyl-3H-indol-1-ium Acetate] | 
7 |  | 1.86 | CC1(C)C(/C=C/C2=C(Cl)C(=C/C=C3/N(CCCCCC(=O)Oc4ccccc4)c4ccccc4C3(C)C)/CC2)=[N+](CCCCCC(=O)O)c2ccccc21.[Cl-] [Example 89] | 
8 |  | 0.46 | CC[N+]1=C(/C=C/C2=C(Cl)C(=C/C=C3/N(CCOCCC(=O)O)c4ccccc4C3(C)C)/CCC2)C(C)(C)c2cc(C(=O)O)ccc21.[Cl-] [Example 91] | 
9 |  | 1.49 | CC[N+]1=C(/C=C/C2=C(Cl)C(=C/C=C3/N(CCCCCC(=O)O)c4ccccc4C3(C)C)/CCC2)C(C)(C)c2cc(C(=O)O)ccc21.[Cl-] [Example 92] | 
10 |  | 2.45 | CC[N+]1=C(/C=C/C2=C(Br)C(=C/C=C3/N(CCCCCC(=O)O)c4ccccc4C3(C)C)/CCC2)C(C)(C)c2ccccc21.[Cl-] [Example 96] | 
11 | 757.5 | 2.483 | CC1(C)C(/C=C/C2=C(Oc3ccc(S(=O)(=O)O)cc3)C(=C/C=C3/N(CCCCCC(=O)Oc4ccccc4)c4ccccc4C3(C)C)/C[N+](C)(C)C2)=[N+](CCCCCC(=O)Oc2ccccc2)c2ccccc21 [Example 103] | 
12 | 781.5 | 2.054 | CC[N+]1=C(/C=C/C2=C(OC)C(=C/C=C3/N(CCCCCC(=O)Oc4ccccc4)c4ccccc4C3(C)C)/CCC2)C(C)(C)c2ccccc21 [Example 104] | 
13 | 807.5 | 1.997 | CC[N+]1=C(/C=C/C2=C(Sc3ccccc3)C(=C/C=C3/N(CCCCCC(=O)Oc4ccccc4)c4ccccc4C3(C)C)/CCC2)C(C)(C)c2ccccc21.[Cl-] [Example 106] | 
14 | 778.5 | 2.028 | CCN1/C(=C/C=C2\C[N+](C)(C)CC(/C=C/C3=[N+](CC)c4ccccc4C3(C)C)=C2Sc2ccccc2)C(C)(C)c2ccccc21.Cl [Example 107] | 
15 | 805.5 | 1.752 | CCN1/C(=C/C=C2\CCCC(/C=C/C3=[N+](CC)c4ccccc4C3(C)C)=C2Sc2ccccc2)C(C)(C)c2ccccc21.[Cl-] [Example 108] | 
16 | 756 | 0.911 | CC[N+]1=C(/C=C/C2=C(Oc3ccc(S(=O)(=O)O)cc3)C(=C/C=C3/N(CCCCCC(=O)Oc4ccccc4)c4ccccc4C3(C)C)/C[N+](C)(C)C2)C(C)(C)c2ccccc21 [Example 112] | 
17 |  | 2.46 | CC[N+]1=C(/C=C/C2=C(Oc3ccc(C#N)cc3)C(=C/C=C3/N(CCCCCC(=O)Oc4c(C)cccc4C)c4ccccc4C3(C)C)/CCC2)C(C)(C)c2ccccc21 [Example 114] | 
18 |  | 2.24 | CC[N+]1=C(/C=C/C2=C(Oc3ccc(NC(=O)/C=C/CN(C)C)cc3)C(=C/C=C3/N(CCCCCC(=O)Oc4c(C)cccc4C)c4ccccc4C3(C)C)/CCC2)C(C)(C)c2ccccc21.[Cl-] [Example 115] | 
19 |  | 1.36 | CC[N+]1=C(/C=C/C2=C(Cl)C(=C/C=C3/N(CCOCCC(=O)Oc4ccccc4)c4ccccc4C3(C)C)/CCC2)C(C)(C)c2cc(C(=O)O)ccc21 [Example 117, 5-carboxy-2-((E)-2-((E)-2-chloro-3-(2-((E)-3,3-dimethyl-1-(2-(3-oxo-3-phenoxypropoxy)ethyl)indolin-2-ylidene)ethenyl)cyclohex-1-en-1-yl)ethenyl)-1-ethyl-3,3-dimethyl-3H-indol-1-ium 2,2,2-trifluoroacetate] | 
20 |  | 1.52 | C[N+]1=C(/C=C/C2=C(Cl)C(=C/C=C3/N(CCCCCC(=O)O)c4ccccc4C3(C)C)/CCC2)C(C)(C)c2cc(C(=O)O)ccc21 [Example 119, 5-carboxy-2-((E)-2-((E)-3-(2-((E)-1-(5-carboxypentyl)-3,3-dimethylindolin-2-ylidene)ethenyl)-2-chlorocyclohex-1-en-1-yl)ethenyl)-1,3,3-trimethyl-3H-indol-1-ium 2,2,2-trifluoroacetate] | 

Row | Structure (SMILES) | Absorption peak [2] [nm] | Absorbance × 10^4 [2] | Uptake by UM-UC-3 with or without BSP [1]
21 | CC[N+]1=C(/C=C/C2=C(Cl)C(=C/C=C3/N(CCCCCC(=O)Oc4ccccc4)c4ccccc4C3(C)C)/CC2)C(C)(C)c2ccccc21 [Example 4, 2-((E)-2-((E)-2-chloro-3-(2-((E)-3,3-dimethyl-1-(6-oxo-6-phenoxyhexyl)indolin-2-ylidene)ethenyl)cyclopent-1-en-1-yl)ethenyl)-1-ethyl-3,3-dimethyl-3H-indol-1-ium Chloride] | 821 | 2.36 | may be weakened or enhanced by BSP
22 | C[n+]1cccc2c1N=C(/C=C/C1=C(Cl)C(=C/C=C3/N(CCCCCC(=O)O)c4ccccc4C3(C)C)/CC1)C2(C)C [Example 63, 2-((E)-2-((E)-3-(2-((E)-1-(5-carboxypentyl)-3,3-dimethylindolin-2-ylidene)ethenyl)-2-chlorocyclopent-1-en-1-yl)ethenyl)-3,3,7-trimethyl-3H-pyrrolo[2,3-b]pyridin-7-ium Chloride] |  | 0.31 | 
23 | C[n+]1cccc2c1N=C(/C=C/C1=C(Cl)C(=C/C=C3/N(CCCCCC(=O)O)c4ccccc4C3(C)C)/CCC1)C2(C)C [Example 64, 2-((E)-2-((E)-3-(2-((E)-1-(5-carboxypentyl)-3,3-dimethylindolin-2-ylidene)ethenyl)-2-chlorocyclohex-1-en-1-yl)ethenyl)-3,3,7-trimethyl-3H-pyrrolo[2,3-b]pyridin-7-ium Chloride] |  | 0.5 | 
24 | CC[N+]1=C(/C=C/C2=C(Cl)C(=C/C=C3/N(CCCCCC(=O)NCCCCCNC(=O)CCCCCN4/C(=C/C=C5\CCCC(/C=C/C6=[N+](CC)c7ccccc7C6(C)C)=C5Cl)C(C)(C)c5ccccc54)c4ccccc4C3(C)C)/CCC2)C(C)(C)c2ccccc21 [Example 77, 2,2′-((1E,1′E)-((3E,3′E)-(((2E,2′E)-((pentane-1,5-diylbis(azanediyl))bis(6-oxohexane-6,1-diyl))bis(3,3-dimethylindolin-1-yl-2-ylidene))bis(ethane-2,1-diylidene))bis(2-chlorocyclohex-1-en-1-yl-3-ylidene))bis(ethene-2,1-diyl))bis(1-ethyl-3,3-dimethyl-3H-indol-1-ium) Chloride] | 794.5 | 4.344 | 
25 | C[N+]1=C(/C=C/C2=C(Cl)C(=C/C=C3/N(CCCCCC(=O)Nc4ccccc4)c4ccccc4C3(C)C)/CC2)C(C)(C)c2ccccc21 [Example 83, 2-((E)-2-((E)-2-chloro-3-(2-((E)-3,3-dimethyl-1-(6-oxo-6-(anilino)hexyl)indol-2-methylene)ethylidene)cyclopent-1-en-1yl)ethenyl)-1,3,3-trimethyl-3H-indol-1-ium Chloride] | 820 | 3.079 | 
26 | CC1(C)C(/C=C/C2=C(Cl)C(=C/C=C3/N(CCCCCC(=O)O)c4ccccc4C3(C)C)/CCC2)=[N+](CCCCCC(=O)O)c2ccccc21 [Example 85B] | 796.5 | 1.397 | 
27 | CC[N+]1=C(/C=C/C2=C(Sc3ccccc3)C(=C/C=C3/N(CCCCCC(=O)Oc4ccccc4)c4ccccc4C3(C)C)/CC2)C(C)(C)c2ccccc21 [Example 101] | 836.5 | 1.971 | 

Source: patent US20260191998A1, “INDOLE PHTHALOCYANINE COMPOUND, PREPARATION METHOD THEREFOR, AND USE THEREOF IN TUMOR DIAGNOSIS IMAGING” (JIANGSU YAHONG MEDITECH CO., LTD., priority 2022, published 2026)
